# From patent US6306857A, “Methods for treating or preventing alzheimer's disease using substituted 1-aryl-3-piperazin-1'-yl propanones” (Molecular Geriatrics Corporation, priority 1999, dated 2001)
# Where a name gives a salt, the structure may show the parent alone.
# Tests used:
# [1] = test system: PHF epitope levels in frontal (Brodman Area 10) and temporal (Brodman Area 38) brain tissue; assay: ALZ-EIA of PHF (ADAP) levels in post-mortem brain tissue of patients chronically treated with chlorpromazine; type: in vivo, human; conditions: chronic treatment; frontal and temporal tissue at autopsy; vs normal controls and AD (FIGS. 4A, 4B)
# Method: FIG. 4A is a chart showing relative ADAP concentrations in Brodman Area 10 in Alzheimer's Disease patients, normal controls and patients treated with chlorpromazine (Rx).
# FIG. 4B is a chart showing relative ADAP concentrations in Brodman Area 38 in Alzheimer's Disease patients, normal controls and patients treated with chlorpromazine (Rx).
# Frontal and cortical brain tissue specimens obtained at autopsy from patients chronically treated with chlorpromazine were analyzed using the ALZ-EIA method previously described (Ghanbari, H A, et al, JAMA, 263, 2907, 1990). The results are shown in FIGS. 4A and 4B frontal (Broadman area 10) and temporal (Broadman area 38) regions, respectively. The brain tissue (post-mortem) from approximately the same number of (age matched) normal controls and Alzheimer's Disease patients were also analyzed and are presented in these figures as negative and positive controls (for normal and AD, respectively).
# [2] = test system: PHF epitopes in MSN1a cells (PHF-1 immunoreactivity); assay: PHF-1 immunoreactivity (western blot) in okadaic acid treated MSN1a cells; type: cell-based, human
# Method: FIG. 3 is a western blot showing PHF-1 immunoreactivity in lysates from control and chlorpromazine treated MSN cells treated with okadaic acid.
# These compounds are effective at micromolar concentrations, with increased potency being evident when cells are treated prior to the addition of okadaic acid. The effective concentrations appear to be in the range at which these drugs are present in the brain following chronic treatment of psychiatric patients (Svendsen, C N, Psychopharmacology, 90, 316-321, 1986).
# To determine the effect of chlorpromazine on the paired helical filament epitopes associated with AD, MSN1a cells expressing paired helical filament epitopes were incubated with […] chlorpromazine (CPZ) or a 0.2% DMSO vehicle control for 2 hours at 37° C. The cells were isolated by centrifugation, boiled for 10 minutes and […] protein from the resulting heat stable supernatants were loaded per lane on an SDS-PAGE gel. The gel was electrophoretically transferred to nitrocellulose membrane and then immunostained with PHF-1. […] The use of the MSN1a cell culture model for screening of novel compounds for therapeutic activity in AD is, therefore, quite warranted.
# [3] = test system: TG3 immunoreactivity in OKA treated MSN1a cells; assay: inhibition of TG3 immunoreactivity in OKA treated MSN1a cells (ELISA); type: cell-based, human; conditions: for IC50: Homo sapiens, 1 μM OKA, 0-64 μM drug, 2 hrs at 37° C., TG3 antibody
# Method: Therefore, the therapeutic activity of the compounds of the invention was assessed by the ability of these agents to affect the production of abnormally phosphorylated epitopes pertinent to the production of PHFs of AD, utilizing a human neuroblastoma cell line (MSN1a) in the presence of the protein phosphatsse inhibitor, okadaic acid (OKA).
# This assay can thus be used to determine whether a drug is capable of preventing or intervening in AD by attenuating the production of abnormally phosphorylated paired helical filament epitopes associated with AD. To determine whether a drug is capable of preventing or intervening in AD activity, the MSN1a cells containing tau and associated proteins are treated with OKA capable of greatly increasing immnunoreactivity of the MSN1a cells with AD specific monoclonal antibodies. Then, either prior to or concomitantly with OKA treatment, a compound of the present invention is added to the culture. If the compound prevents the induction of the AD epitopes in the MSN1a cells treated with OKA, then it is said to have anti-AD activity. If the AD-specific antibodies are highly reactive with the neuroblastoma cells following OKA treatment in the presence of compound, then the compound is said to be ineffectual against AD.
# The MSN1a human neuroblastoma line was subcloned from a population of MSN cells obtained from the laboratory of Dr. Peter Davies (Albert Einstein College of Medicine, New York, N.Y.). Cells were grown and maintained in flasks in RPMI 1640 medium, supplemented with 15% fetal calf serum, 100 U/ml penicillin, 100 U/ml Streptomycin, 0.5 ug/ml fungizone under 7.5% CO2 at 37° C.
# Stock solutions of drugs were prepared by dissolving the anhydrous powders to final concentrations of either 10 or 20 mM in 50% aqueous or 100% dimethyl sulfoxide (DMSO), respectively. […]
# MSN cells grown in 225 cm^2 flasks are removed from the incubator, their medium decanted and replaced with 50 ml pre-warmed KRH. […] The supernatants are discarded and the cell pellets are resuspended, the cells counted and diluted to a density of 2×10^4 cells/50 ml. […]
# [4] = test system: PHF-1 and TG3 epitopes in MSN1a cells; assay: generation of Alzheimer epitopes (PHF-1 and TG3) in MSN1a cells by okadaic acid; type: cell-based, human
# Method: Conditions were established which led to hyperphosphorylation of the proteins known to be involved in PHF formation. Using monoclonal antibodies PHF-1 and TG3 generated to human PHF preparations, the effects of a variety of manipulations of the phosphorylation state of these proteins were tested. These tests required that most of the abnormal epitopes recognized by these monoclonal antibodies in the human Alzheimer brain should be generated in the MSN1a cells. […] These epitopes are either absent or present at a very low level in untreated MSN1a cells.
# Shown in FIG. 2A are bar graphs (percent of AD) of the ELISA immunoreactivity of brain preparations (AD or normal) to either PHF-1 or TG3. Shown in FIG. 2B are bar graphs (percent of MSN+) of the ELISA immunoreactivity of MSN1a cell preparations (minus or plus okadaic acid) to either PHF-1 or TG3. The MSN1a cell preparations plus vs minus okadaic acid closely parallel the AD vs nomal brain preparations. […] The cell culture system according to the invention in which epitopes characteristic of PHF can be readily generated and subsequently recognized by the specific Alzheimer brain specific antibodies provides an assay suitable for screening compounds for their ability to block the production of these phosphorylated epitopes.
smiles,measurement,setting,value
"CN(C)CCCN1c2ccccc2Sc2ccc(Cl)cc21 [Chlorpromazine, chlorpromazine]",PHF epitope levels in brain of chlorpromazine treated patients,[1],low PHF epitope levels similar to normal controls
same,production of paired helical filament epitopes by the MSN1a cells,"[2]; 100 mM chlorpromazine, 2 hours at 37° C., PHF-1 immunostain",greatly decreased the production of paired helical filament epitopes
same,inhibition of the expression of PHF epitopes,"[2]; MSN1a cells treated with okadaic acid, Alzheimer's Disease specific antibodies (cf. FIG. 3)",markedly inhibit the expression of PHF epitopes
same,inhibition of the production of aberrantly phosphorylated epitopes,"[3]; MSN1a cell culture model, TG3",effective in inhibiting the production of these aberrant phosphorylated epitopes
"CSc1ccc(C(=O)CCN2CCN(Cc3ccccc3)CC2)cc1 [Example 14, 1-(p-Methylthiophenyl)-3-(4'-benzyl-1'-piperazinyl)-1-propanone dihydrochloride]",IC50,[3],5.8 µM
"O=C(CCN1CCN(C(=O)c2cccc(F)c2F)CC1)c1ccc([N+](=O)[O-])cc1 [Example 63, 1-(p-Nitrophenyl)-3-[4'-(2"",3""-difluorobenzoyl)-1'-piperazinyl]-1-propanonedlhydrochlorde]",IC50,[3],7.3 µM
C=C1[C@@H](O)[C@@H]2O[C@]3(CC[C@H](/C=C/[C@@H](C)[C@@H]4CC(C)=C[C@@]5(O[C@H](C[C@@](C)(O)C(=O)O)CC[C@H]5O)O4)O3)CC[C@H]2O[C@@H]1[C@@H](O)C[C@H](C)[C@H]1O[C@@]2(CCCCO2)CC[C@H]1C [okadaic acid],generation of the epitopes associated with Alzheimer brain specific monoclonal antibodies,[4],found to generate the epitopes
